Measurements reported in patent US12173283B2, “Cell model for in vitro evaluation of compound-induced skin sensitization and a constructing method therefor” (South China University Of Technology, priority 2017, dated 2024).

Legend:
[1] = system: HMOX1 gene (luciferase reporter); experiment: Luciferase expression assay in HMOX1-luciferase knock-in HaCaT monoclone No. 38 (detection of compound sensitization); type: cell-based; settings: human, HMOX1-luciferase knock-in HaCaT cells, clone No. 38, detection range of concentration 4 μM˜1000 μM, 48 h incubation, compared with negative control group, read-out: expression of luciferase (fold induction), highest reached
Method: 4. Analysis of sensitization of compounds after gene knock-in Sensitization of compounds was detected using clone No. 38.
Pre-cultured cells were centrifuged followed by removal of the supernatant, and were resuspended in fresh complete medium. The cell concentration was calculated with a cell counter after dilution for 10 times, and finally was adjusted to 50,000 cells/well. 200 μL of the cell solution was added to each well of a white opaque 96-well plate to ensure that the number of cells per well was substantially the same. The cell was incubated for 24 h at 37° C. in a 5% CO2 incubator. After 24 h, the medium was removed, and a working solution was prepared with 1% FBS medium. […] After 48 h, luciferase expression was measured and cell viability was detected using MTT.
• (1) 48 hours after treatment, the medium containing the reagent was discarded, and the plate was washed twice with PBS; • (2) 100 μL of PBS was added to each well, and then an equal volume of the luciferase substrate was added; • (3) The plate was shaken at 200 rpm for 2 min to fully lyse the cells; • (4) A Tecan Infinite® 200 Pro multi-function microplate reader selecting luminescence, integration 0.5s was used and the reading was recorded. […]

HMOX1 gene target site = experiment: T7EI digestion identification of target site cleavage by sgRNA co-transfected with hCas9 into 293T cells; type: cell-based; settings: co-transfected with hCas9 plasmid, 72 hours, FIG. 1
Method: sgRNA-1, sgRNA-10, sgRNA-13 plasmid and hCas9 plasmid were co-transfected into 293T cells respectively. After 72 hours, the genome was extracted and expanded with the primers in Table 2 on the target site, and the PCR product was identified by T7EI digestion.
The sgRNA-1, sgRNA-10, and sgRNA-13 plasmids were co-transfected into the 293T cells with a H-Cas9 plasmid (using liposome transfection), and the transfection steps were as follows: • (1) The prior medium was discarded, and 2 mL of fresh medium for incubation was added; • (2) 0.5 μg of the sgRNA recombinant plasmid and 0.5 μg of the hCas9 plasmid were dissolved in 100 μL of DMEM (H), 3 μL of a liposome transfection reagent was diluted to 100 μL, and the diluted liposome transfection reagent was added to the diluted plasmid solution. The mixture was gently blew evenly, formulated into a transfection complex, and reacted at room temperature for 15 min; • (3) The transfection complex was dropped into 6 wells, and reacted at 37° C. for 5 h. Then the reaction solution was discarded, and fresh medium was added for cultivation. Genome Extraction Process
PCR amplification of sgRNA-1, sgRNA-10, and sgRNA-13 was carried out using the extracted genome after transfection as a template; PCR amplification was performed using the wild type (WT) as a template and primers with SEQ ID NO: 6-7 as shown in Table 2. […]

Q: For `Sc1nc2ccccc2s1` [2-mercaptobenzothiazole], which fold induction at 48 h [1] is on record?
A: ≤ 30

Q: With `OCC=Cc1ccccc1` [cinnamyl alcohol] as the compound, how does the fold induction at 48 h [1] read?
A: ≤ 21

Q: Which “cleavage of the target site (T7EI digestion)” value (HMOX1 gene target site) does the source give for “sgRNA-1: specific sgRNA near the stop codon of HMOX1 gene, sequence TTAACAGGTGGGCGTGCATCAGG, Exon 5 (expressed or natural sequence)” here?
A: can effectively cleave the target site

Q: For “sgRNA-13: specific sgRNA near the stop codon of HMOX1 gene, sequence GCTTTATGCCATGTGAATGCAGG, Exon 5 (expressed or natural sequence; the letters are possibly those of the target site)”, which “cleavage of the target site (T7EI digestion)” value (HMOX1 gene target site) is on record?
A: can effectively cleave the target site
